# Test results published in US20040106172A1, “Hydrolyzing/dehydration condensing enzymes, method for producing the enzyme and method for synthesizing amide by using the enzyme” (Okayama University, priority 2002, published 2004).
# Read-outs that look alike come from different tables or passages of the source.
# Experiments:
# [1] = system: purified enzyme (capsaicin hydrolysis activity); assay: Effects of various reagents upon enzymatic activity (capsaicin hydrolysis); type: biochemical, Streptomyces mobaraensis IFO 13819
# [2] = system: Penicillin Vacylase originated from Streptomyces lavendulae; conditions: cited from earlier work; for Activity kcat: substrate of Streptomyces lavendulae Penicillin V acylase, Torres-Guzman et al. 2002
# [3] = system: Streptomyces mobaraensis (enzyme according to the invention); assay: Hydrolysis of antibiotic substances having an amide bond by the enzyme of the invention; type: biochemical; conditions: for hydrolyzing activity for the substrate: 10 mM antibiotic, pH 7.5, 37° C., 2 minutes, 0.1 mM CoCl2, 1 Unit = 1 μmol substrate hydrolyzed in 1 hour; for Activity kcat (approximate value): substrate of the enzyme according to the invention
# Procedure: The enzyme is examined on the hydrolysis of an antibiotic substance having an amide bond. As the antibiotic substance are used Penicillin G, Penicillin V and Ampicillin, respectively. The reaction is carried out at 37° C. for 2 minutes by using 20 μg of the enzyme in 0.1 ml of 50 mM tris-hydrochloric acid buffer solution containing 0.1 mM of CoCl2 as a solvent (pH: 7.5) under a condition that a final concentration of the antibiotic substance is 10 mM.
# As a result, if the hydrolyzing activity for capsaicin at pH of 7.5 is 200 U/mg (Unit is defined as an amount of the enzyme required for hydrolyzing 1 μmol of the substrate at 37° C. for 1 hour), the activities for Penicillin G, Penicillin V and Ampicillin are 2200 U, 6000 U and 1000 U, respectively.
# In order to show the utility of the enzyme according to the invention, it is compared with the existing Penicillin Vacylase originated from Streptomyces lavendulae (Raquel Torres-Guzman et al., Biochemical and Biophysical Research Communications, Vol. 291, 593-0597 (2002)) (compared with activity kcat (1/s)).
# [4] = pH dependency, heat stability and temperature dependency of the purified enzyme; type: physicochemical, Streptomyces mobaraensis IFO 13819
# [5] = system: Streptomyces mobaraensis (enzyme according to the invention); assay: Hydrolysis of N-benzyloxycarbonyl-L-amino acids by the enzyme of the invention; type: biochemical
# Procedure: An ability of hydrolyzing/dehydration condensing by the enzyme according to the invention is examined by using N-benzyloxycarbonyl-L-amino acid (Z-L-amino acid) as an amide. The reaction is performed by using […] of the enzyme in 0.2 ml of 50 mM tris-hydrochloric acid buffer solution containing 0.1 mM of CoCl2 as a solvent (pH: 7.5) under a condition that a final concentration of N-benzyloxycarbonyl-L-amino acid is 10 mM at 37° C. for 30 minutes (Z-L-Phe and Z-L-Tyr) or 1 hour (the other Z-L-amino acids).
# [6] = system: Urethane hydrolase IV (strain F-86); conditions: cited from earlier work
# [7] = system: Capsaicin hydrolyzing/dehydration condensing enzyme of the invention; conditions: fatty acid as substrate with vanillylamine; water/n-hexane two-phase system, 37° C.; HPLC of hexane phase
# Procedure: (§1) The reaction temperature is 37° C.
# (§2) As a comparative example, aminoacylase is used. The resulting capsaicin analog is quantitatively measured by HPLC analysis of the hexane phase.
# Aminoacylase = assay: Synthesis of capsaicin analogs from vanillylamine and fatty acids, comparative aminoacylase; type: biochemical; conditions: comparative example; fatty acid as substrate with vanillylamine; water/n-hexane two-phase system, 37° C.; HPLC of hexane phase
# Procedure: as §1, §2
# [8] = reagent 1 mM, 0.13 mM capsaicin/50 mM tris-HCl (pH 7.5), control = 100
# [9] = 10 mM Z-L-amino acid, pH 7.5, 37° C., 0.1 mM CoCl2
Molecule,"Relative activity [1, 8]","Activity for the substrate [5, 9]",Activity for the substrate ([6]; Matsumura et al. 1985),further results
O=[N+]([O-])[O-].[Ag+] [AgNO3],100.1%,,,
CC1(C)S[C@@H]2[C@H](NC(=O)[C@H](N)c3ccccc3)C(=O)N2[C@H]1C(=O)O [Ampicillin],,,,Activity for the substrate [2]: hardly an activity; Activity kcat [2]: 0 s⁻¹; Activity for the substrate [3]: excellent activity; hydrolyzing activity for the substrate [3]: 1000 U; Activity kcat (approximate value) [3]: >17 s⁻¹
[Ca+2].[Cl-].[Cl-] [CaCl2],101.6%,,,
[Cl-].[Cl-].[Co+2] [CoCl2],,,,effect on capsaicin hydrolysis activity of the purified enzyme [1]: enhanced; Relative activity ([1]; pH 7.5): 145.5%; residual activity with added cobalt ion vs no cobalt ion [4]: higher
O=S(=O)([O-])[O-].[Cu+2] [CuSO4],96.9%,,,
O=C(NC(CSCc1ccccc1)C(=O)O)OCc1ccccc1 (stereo not shown) [Cys(Bzl)],,250 Unit/mg,228 Unit/mg,
O[C@@H](CS)[C@@H](O)CS [DTT],79.8%,,,
O=C(O)CN(CCN(CC(=O)O)CC(=O)O)CC(=O)O [EDTA],,,,Relative activity ([1]; pH 7.5): 85.5%
O=S(=O)([O-])[O-].[Fe+2] [FeSO4],88.8%,,,
N[C@@H](CCC(=O)N[C@@H](CS)C(=O)NCC(=O)O)C(=O)O [GSH],99.8%,,,
NC(=O)CI [Idoacetoamide],86.5%,,,
N[C@@H](CS)C(=O)O [L-Cys],101.2%,,,
CCCCCCCCCCCC(=O)O [Lauric acid],,,,Synthesis of capsaicin analogs [7]: 1.25 mM; Synthesis of capsaicin analogs (Aminoacylase): 0.051 mM
O=S(=O)([O-])[O-].[Mg+2] [MgSO4],96.0%,,,
CCCCCCCCCCCCCC(=O)O [Myristic acid],,,,Synthesis of capsaicin analogs [7]: 0.24 mM
O=C(O)c1cc[c]([Hg][Cl])cc1 [PCMB],96.6%,,,
CC1(C)S[C@@H]2[C@H](NC(=O)Cc3ccccc3)C(=O)N2[C@H]1C(=O)O [Penicillin G],,,,Activity for the substrate [2]: hardly an activity; Activity kcat [2]: 3.4 s⁻¹; Activity for the substrate [3]: excellent activity; hydrolyzing activity for the substrate [3]: 2200 U; Activity kcat (approximate value) [3]: >50 s⁻¹
CC1(C)S[C@@H]2[C@H](NC(=O)COc3ccccc3)C(=O)N2[C@H]1C(=O)O [Penicillin V],,,,Activity kcat [2]: 60.25 s⁻¹; hydrolyzing activity for the substrate [3]: 6000 U; Activity kcat (approximate value) [3]: >80 s⁻¹
C[C@H](NC(=O)OCc1ccccc1)C(=O)O [Z-Ala],,29 Unit/mg,228 Unit/mg,
N=C(N)NCCC[C@H](NC(=O)OCc1ccccc1)C(=O)O [Z-Arg],,37 Unit/mg,0 Unit/mg,

Molecule,"Relative activity [1, 8]","Activity for the substrate [5, 9]",Activity for the substrate ([6]; Matsumura et al. 1985),further results
NC(=O)C[C@H](NC(=O)OCc1ccccc1)C(=O)O [Z-Asn],,12 Unit/mg,138 Unit/mg,
O=C(O)C[C@H](NC(=O)OCc1ccccc1)C(=O)O [Z-Asp],,,360 Unit/mg,
NC(=O)CC[C@H](NC(=O)OCc1ccccc1)C(=O)O [Z-Gln],,27 Unit/mg,144 Unit/mg,
O=C(O)CC[C@H](NC(=O)OCc1ccccc1)C(=O)O [Z-Glu],,12 Unit/mg,246 Unit/mg,
O=C(O)CNC(=O)OCc1ccccc1 [Z-Gly],,0 Unit/mg,108 Unit/mg,
O=C(NC(Cc1cnc[nH]1)C(=O)O)OCc1ccccc1 (stereo not shown) [Z-His],,36 Unit/mg,18 Unit/mg,
CCC(C)C(NC(=O)OCc1ccccc1)C(=O)O (stereo not shown) [Z-Ile],,28 Unit/mg,18 Unit/mg,
CC(C)C[C@H](NC(=O)OCc1ccccc1)C(=O)O [Z-Leu],,100 Unit/mg,1668 Unit/mg,
NCCCC[C@H](NC(=O)OCc1ccccc1)C(=O)O [Z-Lys],,38 Unit/mg,0 Unit/mg,
CSCCC(NC(=O)OCc1ccccc1)C(=O)O (stereo not shown) [Z-Met],,85 Unit/mg,294 Unit/mg,
O=C(N[C@@H](Cc1ccccc1)C(=O)O)OCc1ccccc1 [Z-Phe],,470 Unit/mg,54 Unit/mg,Activity for the substrate [5]: high activity; Activity for the substrate [6]: lower activity
O=C(N[C@@H](CO)C(=O)O)OCc1ccccc1 [Z-Ser],,0 Unit/mg,18 Unit/mg,
C[C@@H](O)[C@H](NC(=O)OCc1ccccc1)C(=O)O [Z-Thr],,4.5 Unit/mg,162 Unit/mg,
O=C(N[C@@H](Cc1ccc(O)cc1)C(=O)O)OCc1ccccc1 [Z-Tyr],,650 Unit/mg,0 Unit/mg,Activity for the substrate [5]: high activity; Activity for the substrate [6]: lower activity
CC(C)C(NC(=O)OCc1ccccc1)C(=O)O (stereo not shown) [Z-Val],,43 Unit/mg,84 Unit/mg,
[Cl-].[Cl-].[Zn+2] [ZnCl2],95.5%,,,
COc1cc(CNC(=O)CCCC/C=C/C(C)C)ccc1O [capsaicin],,,,"hydrolyzing activity for capsaicin ([3]; pH 7.5, reference value for the antibiotic activities): 200 U/mg"
OCCS [β-mercaptoethanol],,,,"Relative activity ([1]; reagent 10 mM, 0.13 mM capsaicin/50 mM tris-HCl (pH 7.5), control = 100): 79.3%"
(NH4)6Mo7O24,88.7%,,,
